Literature values in patent publication US12226530B2, “Lenalidomide gastro-retentive sustained-release tablet and preparation method thereof” (DiQi Pharmaceuticals Co., Ltd., priority 2018, dated 2025).
Read-outs that look alike come from different tables or passages of the source.

Assays:
[1] = not given; remark: listed apart in the source

Solubility (hydrochloric acid buffer with a pH of 1.2): about 18 mg/ml
Solubility (pH of solution medium greater than 4.6): lower than 0.6 mg/ml
Change of concentration ([1]; solvent pH 1.2, 6 hours): unchanged
Decrease of concentration ([1]; solvent pH 4.5, 6 hours): 6%
Decrease of concentration ([1]; solvent pH 6.8, 6 hours): 16%
Compound: Nc1cccc2c1CN(C1CCC(=O)NC1=O)C2=O (centres unmarked) [lenalidomide]
